Results published in US4735947A, “Methyllevallorphanium salts having peripheral opiate antagonistic activity” (Sanofi, priority 1983, dated 1988).
Structures can show the parent of a compound that is named as a salt.

What was measured:
[1] = system: analgesic effect of morphine; experiment: antagonism to the analgesic effect of morphine, hot-plate analgesia test (P. A. Janssen et al.); type: in vivo, mice; details: for Antagonism to the analgesic effect ID50a / ED50: female mice, antagonist s.c. 5 min before morphine 24 mg/kg s.c.; for ED50: read-out: Antagonism to the analgesic effect ID50a
Protocol: (§1) The antagonism to the peripheral action of opiates is assessed on the basis of the percent inhibition of the analgesic and of the constipating effects of morphine. The ratio between the dose which inhibits by 50% the analgesic effect of morphine and the dose which inhibits by 50% its constipating effect represents the index of the peripheral activity.
(§2) The antagonism to the analgesic effect of morphine was assessed by the hot-plate analgesia test according to P. A. Janssen et al. (J. Pharm. Pharmacol. 1957, 9, 381-400) by using fasting (18 hours) female mice of 20-22 g. Morphine was injected subcutaneously (24 mg/kg) thirty minutes before the beginning of the test. The antagonist was injected subcutaneously 5 minutes before the morphine. The antagonistic activity was expressed as ID50 of the morphine antinociceptive effect, calculated on the basis of the log dose reaction time regression of the animals treated with different doses of the products under testing.
(§3) The doses which inhibit by 50% the analgesic effect (ID50a) and the constipating effect (ID50c) have been extrapolated from least square log dose-response line by applying the analysis of the variance by linear regression.

[2] = system: analgesic and constipating effects of morphine; experiment: index of peripheral activity (hot-plate analgesia test versus charcoal meal constipation test); type: in vivo, mice; details: for ID50a/ID50c: index of the peripheral activity; for peripheral selectivity (analgesic versus constipating effect), in words: conditions of Table I
Protocol: as §1, §2
(§4) The antagonism to the morphine constipating effect of the methyl levallorphanium salts of the present invention was assessed according to the test described by A. F. Green (Br. J. Pharm. Chemother. 1959, 14, 26-34), slightly modified.
(§5) Three groups of fasting (20 hours) female mice of about 20 g were used. To a control group, a meal consisting of 0.2 ml of a mixture of 5% arabic gum (6 ml), flour (2 g) and charcoal (1 g) was administered by oral route. The second group was treated with 12 mg/kg of morphine s.c. and, immediately afterwards, with the above charcoal meal. […] After 30 minutes, the animals were sacrificed to assess the portion of intestine through which the charcoal had passed, expressed as percent of the total length of the small intestine.
as §3

[3] = system: constipating effect of morphine; experiment: antagonism to the morphine constipating effect, charcoal meal test (A. F. Green, slightly modified); type: in vivo, mice; details: for Antagonism to the constipating effect ID50c / ED50: charcoal meal, female mice, antagonist s.c. 5 min before morphine 12 mg/kg s.c.; for ED50: Mus musculus, sc, read-out: Antagonism to the constipating effect ID50c
Protocol: as §1, §4, §5, §3

opiate = details: reported in earlier literature or filings; cited from earlier work

| Compound | Antagonism to the analgesic effect ID50a [1] [mg/kg] | ID50a/ID50c [2] | Antagonism to the constipating effect ID50c [3] [mg/kg] | inhibition at 30 mg/kg ([1]; Mus musculus, sc, at 30 mg/kg s.c., mice, read-out: inhib. of the analgesic effect of morphine) [%] | inhibition at 60 mg/kg ([1]; Mus musculus, sc, at 60 mg/kg s.c., mice, read-out: inhib. of the analgesic effect of morphine) [%] | ED50 ([1]; Mus musculus, sc) [mg/kg] | ED50 [3] [mg/kg] | peripheral antagonistic activity / opiate antagonistic activity (opiate) | peripheral selectivity (analgesic versus constipating effect), in words [2] | peripheral opiate antagonism, in words ([3]; conditions of Table I) |
| --- | --- | --- | --- | --- | --- | --- | --- | --- | --- | --- |
| C=CC[N+]1(C)CC[C@]23CCCC[C@H]2[C@H]1Cc1ccc(O)cc13 (single isomer, unassigned) [methyllevallorphanium mesilate] | > 60 | > 8 | 7.4 |  |  |  |  |  |  |  |
| C=CC[N+]1(C)CC[C@]23CCCC[C@H]2[C@H]1Cc1ccc(O)cc13 (single isomer, unassigned) [methyllevallorphanium methylsulfate] |  | ~ 12 |  | 41 | 49 | ~60 | 4.9 |  |  |  |
| C=CC[N+]1(CC=C)CC[C@]23CCCC[C@H]2[C@H]1Cc1ccc(O)cc13 [levallorphan bromoallylate] |  | 0.97 |  |  |  |  | 15.7 | peripheral narcotic antagonist | the ratio between its ID50a and ID50c is by far lower than that of the compounds of the present invention | good opiate peripheral antagonist |
| C=CCN1CC[C@]23CCCC[C@H]2[C@H]1Cc1ccc(O)cc13 [levallorphan tartrate] |  | 0.01 |  |  |  | 0.03 | 5.5 |  | more active as antagonists of the analgesic effect than as antagonists of the constipating effect |  |
| C=CC[N+]1(C)CC[C@]23c4c5ccc(O)c4O[C@H]2C(=O)CC[C@@]3(O)[C@H]1C5.COS(=O)(=O)[O-] (stereo partly drawn) [naloxone sulfomethylate] | 1.6 | 0.27 | 5.8 |  |  |  |  |  |  |  |
| C=CCN1CC[C@]23c4c5ccc(O)c4O[C@H]2C(=O)CC[C@@]3(O)[C@H]1C5 [naloxone, N-allylnoroxymorphone] |  | 0.08 |  |  |  | 0.06 | 0.75 |  | more active as antagonists of the analgesic effect than as antagonists of the constipating effect |  |
